According to patent US20260207713A1, “Drug Combination Kit for Controlling Blood Sugar” (Ningbo Y Biotechology lnc., priority 2023, published 2026):

Experiments:
diabetic rat models = test: Type II diabetes rat model (high-sugar, high-fat diet plus STZ); fasting blood sugar and glycated hemoglobin after 3 months of drug intervention; format: in vivo, SPD rats
Experimental: A study in Aging (Albany NY). 2021 Mar. […] The inventor opted for 12-month-old male SPD rats (weighing between 540 grams and 560 grams) for the experiment. These rats were fed a high-sugar, high-fat diet (10% lard, 2.5% cholesterol, 1.0% pig bile salt, 20% sucrose, and 66.5% conventional feed). […] The diet continued for an additional 12 weeks. Finally, rats with a fasting blood sugar level exceeding 10 mmol/L were selected, and their fasting blood sugar levels were measured for 3 consecutive times every 3 days. Rats maintaining stable fasting blood sugar levels above 10 mmol/L were chosen. Each group comprised 5 animals, and a standard diet (18.0% fat, 24.0% protein, and 58.0% carbohydrates) was administered during the drug intervention period. Given that the lifespan of glycated hemoglobin is approximately 3 months, the duration of drug intervention was established at 3 months to ensure precise measurement of post-intervention glycated hemoglobin.
These ingredients are mixed evenly with unsaturated fish oil, and then encapsulated in ultra-long type No. 9 enteric-coated capsules. […] The ketoester was diluted with flavored water to achieve a 50% concentration, while the control solution consisted of flavored water only. The method of gastric gavage was employed.
After three months of medication, blood was drawn from the tail to measure fasting blood sugar and glycated hemoglobin, with results expressed as the mean.
Feed 50% ketoester solution three times daily: at 8 am, 12 pm, and 5 pm. The total daily intake was selected as 3 g/kg/day or 5 g/kg/day, as referenced in BMC Anesthesiol. 2023; 23:p43. […] The subsequent experiment utilized 50% ketoester solution at 3 g/day/kg.

[1] = cited from earlier work
[2] = test system: patients with type II diabetes; conditions: type II diabetes patients on chemical hypoglycemic drugs, no insulin injection, 28 consecutive days; cited from earlier work
[3] = 20 mg/kg once a day in the morning, diabetic rats
[4] = 50% ketoester solution 3 g/kg/day, three times daily by gavage, diabetic rats
[5] = 50% ketoester solution 5 g/kg/day, three times daily by gavage, diabetic rats

Structure (SMILES): Cc1ccc([C@@H]2O[C@H](CO)[C@@H](O)[C@H](O)[C@H]2O)cc1Cc1ccc(-c2ccc(F)cc2)s1 [Canagliflozin, canagliflozin, reference compound]
- Fasting blood sugar after three months (diabetic rat models; [3]): 6.38 ± 0.41 mmol/L
- Glycated hemoglobin measurement after three months (diabetic rat models; [3]): 5.63 +/− 0.42%

Structure (SMILES): C[C@@H](O)CCOC(=O)C[C@@H](C)O [ketoester, (R)-3-hydroxybutyrate-(R)-1,3-butanediol ester]
- Duration of ketogenic effect ([1]; oral solution): 4 to 6 h
- Ketogenic effect (level reached) ([1]; oral solution): approximately 3 mM
- Reduction in fructosamine [2]: 13.4%
- Reduction in glycated hemoglobin [2]: 8.3%
- Difference in effects on fasting blood sugar and glycated hemoglobin between dosages (diabetic rat models; 3 g/kg/day versus 5 g/kg/day): no significant difference
- Fasting blood sugar measurement after three months (diabetic rat models; [4]): 7.15 ± 0.51 mmol/L
- Glycated hemoglobin measurement after three months (diabetic rat models; [4]): 6.82 +/− 0.34%
- Fasting blood sugar measurement after three months (diabetic rat models; [5]): 6.90 ± 0.41 mmol/L
- Glycated hemoglobin measurement after three months (diabetic rat models; [5]): 6.75 +/− 0.42%

Structure (SMILES): CC(O)CC(=O)[O-].[Na+] (stereo not drawn) [sodium 3-hydroxybutyrate, reference compound]
- Ketogenic effects ([1]; early exogenous ketone): poor ketogenic effects
